Tests used:
[1] = system: pigweed (Amaranthus retroflexus); assay: Test A preemergence, visual injury rating 0-100; format: in vivo; conditions: for Pigweed plant response rating (0 to 100 scale): 125 g ai/ha
From the text: (§1) Seeds of plant species selected from barnyardgrass (Echinochloa crus-galli), kochia (Kochia scoparia), ragweed (common ragweed, Ambrosia elatior), ryegrass, Italian (Italian ryegrass, Lolium multiflorum), foxtail, giant (giant foxtail, Setaria faberii), foxtail, green (green foxtail, Setaria viridis), and pigweed (Amaranthus retroflexus) were planted into a blend of loam soil and sand and treated preemergence with a directed soil spray using test chemicals formulated in a non-phytotoxic solvent mixture which included a surfactant.
(§2) At the same time, plants selected from these weed species and also wheat (Triticum aestivum), corn (Zea mays), blackgrass (Alopecurus myosuroides), and galium (catchweed bedstraw, Galium aparine) were planted in pots containing the same blend of loam soil and sand and treated with postemergence applications of test chemicals formulated in the same manner. Plants ranged in height from 2 to 10 cm and were in the one- to two-leaf stage for the postemergence treatment. Treated plants and untreated controls were maintained in a greenhouse for approximately 10 days, after which time all treated plants were compared to untreated controls and visually evaluated for injury. […] A dash (-) response means no test result.

[2] = system: ragweed (common ragweed, Ambrosia elatior); assay: Test A preemergence, visual injury rating 0-100; format: in vivo; conditions: for Ragweed plant response rating (0 to 100 scale): 125 g ai/ha
From the text: as §1, §2

[3] = system: foxtail, giant (giant foxtail, Setaria faberii); assay: Test A preemergence, visual injury rating 0-100; format: in vivo; conditions: for Foxtail, Giant plant response rating (0 to 100 scale): 125 g ai/ha
From the text: as §1, §2

[4] = system: kochia (Kochia scoparia); assay: Test A preemergence, visual injury rating 0-100; format: in vivo; conditions: for Kochia plant response rating (0 to 100 scale): 125 g ai/ha
From the text: as §1, §2

[5] = system: ryegrass, Italian (Italian ryegrass, Lolium multiflorum); assay: Test A preemergence, visual injury rating 0-100; format: in vivo; conditions: for Ryegrass, Italian plant response rating (0 to 100 scale): 125 g ai/ha
From the text: as §1, §2

[6] = system: barnyardgrass (Echinochloa crus-galli); assay: Test B flooded paddy test, visual rating 0-100; conditions: Flood, 250 g ai/ha, applied to paddy water, rated after 13 to 15 days
[7] = system: barnyardgrass (Echinochloa crus-galli); assay: Test A preemergence, visual injury rating 0-100 (0 no effect, 100 complete control); format: in vivo; conditions: for Barnyardgrass plant response rating (0 to 100 scale): 125 g ai/ha
From the text: as §1, §2

[8] = system: ducksalad (Heteranthera limosa); assay: Test B flooded paddy test, visual rating 0-100; conditions: Flood, 250 g ai/ha, applied to paddy water, rated after 13 to 15 days
[9] = system: rice (Oryza sativa); assay: Test B flooded paddy test, visual rating 0-100 (0 no effect, 100 complete control); conditions: Flood, 250 g ai/ha, applied to paddy water, rated after 13 to 15 days
[10] = system: barnyardgrass (Echinochloa crus-galli); assay: Test A postemergence, visual injury rating 0-100; format: in vivo; conditions: 0 to 100 scale
From the text: as §1, §2

[11] = system: galium (catchweed bedstraw, Galium aparine); assay: Test A postemergence, visual injury rating 0-100; format: in vivo; conditions: 0 to 100 scale
From the text: as §1, §2

[12] = system: pigweed (Amaranthus retroflexus); assay: Test A postemergence, visual injury rating 0-100; format: in vivo; conditions: 0 to 100 scale
From the text: as §1, §2

[13] = system: ragweed (common ragweed, Ambrosia elatior); assay: Test A postemergence, visual injury rating 0-100; format: in vivo; conditions: 0 to 100 scale
From the text: as §1, §2

[14] = system: foxtail, giant (giant foxtail, Setaria faberii); assay: Test A postemergence, visual injury rating 0-100; format: in vivo; conditions: 0 to 100 scale
From the text: as §1, §2

[15] = system: wheat (Triticum aestivum); assay: Test A postemergence, visual injury rating 0-100; format: in vivo; conditions: 0 to 100 scale
From the text: as §1, §2

[16] = system: corn (Zea mays); assay: Test A postemergence, visual injury rating 0-100; format: in vivo; conditions: 0 to 100 scale
From the text: as §1, §2

[17] = system: blackgrass (Alopecurus myosuroides); assay: Test A postemergence, visual injury rating 0-100; format: in vivo; conditions: 0 to 100 scale
From the text: as §1, §2

[18] = system: kochia (Kochia scoparia); assay: Test A postemergence, visual injury rating 0-100; format: in vivo; conditions: 0 to 100 scale
From the text: as §1, §2

[19] = system: ryegrass, Italian (Italian ryegrass, Lolium multiflorum); assay: Test A postemergence, visual injury rating 0-100; format: in vivo; conditions: 0 to 100 scale
From the text: as §1, §2

[20] = 31 g ai/ha, 0 to 100 scale (0 no effect, 100 complete control), approx. 10 days

Row | SMILES | Pigweed plant response rating (0 to 100 scale) [1] | Pigweed plant response rating ([1]; 500 g ai/ha, 0 to 100 scale) | Ragweed plant response rating (0 to 100 scale) [2] | Foxtail, Giant plant response rating (0 to 100 scale) [3] | Kochia plant response rating (0 to 100 scale) [4] | Ryegrass, Italian plant response rating (0 to 100 scale) [5] | Barnyardgrass plant response rating (0 to 100 scale) [6] | Barnyardgrass plant response rating (0 to 100 scale) [7] | Ducksalad plant response rating (0 to 100 scale) [8] | Rice plant response rating (0 to 100 scale) [9] | Barnyardgrass plant response rating ([10]; 125 g ai/ha) | Galium plant response rating ([11]; 125 g ai/ha) | Pigweed plant response rating ([12]; 125 g ai/ha) | Ragweed plant response rating ([13]; 125 g ai/ha) | Foxtail, Giant plant response rating ([14]; 125 g ai/ha) | Wheat plant response rating ([15]; 125 g ai/ha) | Corn plant response rating ([16]; 125 g ai/ha) | Blackgrass plant response rating ([17]; 125 g ai/ha) | Kochia plant response rating ([18]; 125 g ai/ha) | Ryegrass, Italian plant response rating ([19]; 125 g ai/ha) | further results
1 | CC1=[N+]([O-])C(C(=O)Nc2cccc(F)c2F)C(c2ccccc2C)C1 (racemic) [Compound 11] | 0 | 0 | 40 | 90 | 0 | 0 | 90 | 80 | 100 | 15 | 40 | 0 | 0 | 0 | 30 | 0 | 0 | 0 | 0 | 0 | Ragweed plant response rating ([2]; 500 g ai/ha, 0 to 100 scale): 30; Foxtail, Giant plant response rating ([3]; 500 g ai/ha, 0 to 100 scale): 100; Kochia plant response rating ([4]; 500 g ai/ha, 0 to 100 scale): 0; Ryegrass, Italian plant response rating ([5]; 500 g ai/ha, 0 to 100 scale): 0; Barnyardgrass plant response rating ([7]; 500 g ai/ha, 0 to 100 scale): 100; Barnyardgrass plant response rating ([10]; 500 g ai/ha): 90; Galium plant response rating ([11]; 500 g ai/ha): 20; Pigweed plant response rating ([12]; 500 g ai/ha): 0; Ragweed plant response rating ([13]; 500 g ai/ha): 0; Foxtail, Giant plant response rating ([14]; 500 g ai/ha): 90; Wheat plant response rating ([15]; 500 g ai/ha): 20; Corn plant response rating ([16]; 500 g ai/ha): 0; Blackgrass plant response rating ([17]; 500 g ai/ha): 0; Kochia plant response rating ([18]; 500 g ai/ha): 0; Ryegrass, Italian plant response rating ([19]; 500 g ai/ha): 0
2 | CC1=[N+]([O-])C(C(=O)Nc2cccc(F)c2F)C(c2cccc(C(C)C)c2)C1 (racemic) [Compound 12] | 0 | 30 | 0 | 100 | 0 | 0 | 70 | 100 | 80 | 0 | 10 | 50 | 0 | 0 | 90 | 20 | 50 | 0 | 0 | 0 | Ragweed plant response rating ([2]; 500 g ai/ha, 0 to 100 scale): 90; Foxtail, Giant plant response rating ([3]; 500 g ai/ha, 0 to 100 scale): 100; Kochia plant response rating ([4]; 500 g ai/ha, 0 to 100 scale): 50; Ryegrass, Italian plant response rating ([5]; 500 g ai/ha, 0 to 100 scale): 90; Barnyardgrass plant response rating ([7]; 500 g ai/ha, 0 to 100 scale): 100; Barnyardgrass plant response rating ([10]; 500 g ai/ha): 90; Galium plant response rating ([11]; 500 g ai/ha): 70; Pigweed plant response rating ([12]; 500 g ai/ha): 20; Ragweed plant response rating ([13]; 500 g ai/ha): 40; Foxtail, Giant plant response rating ([14]; 500 g ai/ha): 90; Wheat plant response rating ([15]; 500 g ai/ha): 70; Corn plant response rating ([16]; 500 g ai/ha): 90; Blackgrass plant response rating ([17]; 500 g ai/ha): 50; Kochia plant response rating ([18]; 500 g ai/ha): 30; Ryegrass, Italian plant response rating ([19]; 500 g ai/ha): 50
3 | CC1=[N+]([O-])C(C(=O)Nc2cccc(F)c2F)C(c2c(F)cccc2Cl)C1 (racemic) [Compound 14] | 0 | 0 | 0 | 0 | 0 | 0 | 40 | 0 | 20 | 0 | 0 | 0 | 0 | 0 | 0 | 0 | 0 | 0 | 0 | 0 | Ragweed plant response rating ([2]; 500 g ai/ha, 0 to 100 scale): 0; Foxtail, Giant plant response rating ([3]; 500 g ai/ha, 0 to 100 scale): 0; Kochia plant response rating ([4]; 500 g ai/ha, 0 to 100 scale): 0; Ryegrass, Italian plant response rating ([5]; 500 g ai/ha, 0 to 100 scale): 0; Barnyardgrass plant response rating ([7]; 500 g ai/ha, 0 to 100 scale): 0; Barnyardgrass plant response rating ([10]; 500 g ai/ha): 0; Galium plant response rating ([11]; 500 g ai/ha): 0; Pigweed plant response rating ([12]; 500 g ai/ha): 0; Ragweed plant response rating ([13]; 500 g ai/ha): 0; Foxtail, Giant plant response rating ([14]; 500 g ai/ha): 0; Wheat plant response rating ([15]; 500 g ai/ha): 0; Corn plant response rating ([16]; 500 g ai/ha): 0; Blackgrass plant response rating ([17]; 500 g ai/ha): 0; Kochia plant response rating ([18]; 500 g ai/ha): 0; Ryegrass, Italian plant response rating ([19]; 500 g ai/ha): 0
4 | CC1=[N+]([O-])C(C(=O)Nc2cccc(F)c2F)C(c2cccc(C)c2)C1 (racemic) [Compound 15] | 0 | 0 | 0 | 100 | 0 | 0 | 85 | 100 | 95 | 15 | 90 | 0 | 0 | 0 | 80 | 40 | 60 | 0 | 0 | 30 | Ragweed plant response rating ([2]; 500 g ai/ha, 0 to 100 scale): 90; Foxtail, Giant plant response rating ([3]; 500 g ai/ha, 0 to 100 scale): 100; Kochia plant response rating ([4]; 500 g ai/ha, 0 to 100 scale): 30; Ryegrass, Italian plant response rating ([5]; 500 g ai/ha, 0 to 100 scale): 50; Barnyardgrass plant response rating ([7]; 500 g ai/ha, 0 to 100 scale): 100; Barnyardgrass plant response rating ([10]; 500 g ai/ha): 90; Galium plant response rating ([11]; 500 g ai/ha): 30; Pigweed plant response rating ([12]; 500 g ai/ha): 40; Ragweed plant response rating ([13]; 500 g ai/ha): 50; Foxtail, Giant plant response rating ([14]; 500 g ai/ha): 90; Wheat plant response rating ([15]; 500 g ai/ha): 50; Corn plant response rating ([16]; 500 g ai/ha): 90; Blackgrass plant response rating ([17]; 500 g ai/ha): 30; Kochia plant response rating ([18]; 500 g ai/ha): 30; Ryegrass, Italian plant response rating ([19]; 500 g ai/ha): 50
5 | CC1=[N+]([O-])C(C(=O)Nc2cccc(F)c2F)C(c2ccc(F)c(Oc3ccc(F)cn3)c2)C1 (racemic) [Compound 48] | 0 |  | 0 | 90 | 0 | 20 | 20 | 90 | 70 | 10 | 0 | 40 | 30 | 30 | 0 | 0 | 0 | 70 | 0 | 30 | Pigweed plant response rating [1, 20]: 0; Ragweed plant response rating [2, 20]: 0; Foxtail, Giant plant response rating [3, 20]: 0; Kochia plant response rating [4, 20]: 0; Ryegrass, Italian plant response rating [5, 20]: 0; Barnyardgrass plant response rating [7, 20]: 0; Barnyardgrass plant response rating ([10]; 31 g ai/ha): 0; Galium plant response rating ([11]; 31 g ai/ha): 20; Pigweed plant response rating ([12]; 31 g ai/ha): 0; Ragweed plant response rating ([13]; 31 g ai/ha): 0; Foxtail, Giant plant response rating ([14]; 31 g ai/ha): 0; Wheat plant response rating ([15]; 31 g ai/ha): 0; Corn plant response rating ([16]; 31 g ai/ha): 0; Blackgrass plant response rating ([17]; 31 g ai/ha): 30; Kochia plant response rating ([18]; 31 g ai/ha): 0; Ryegrass, Italian plant response rating ([19]; 31 g ai/ha): 30

Reference: patent publication US11498899B2, “Nitrone herbicides” (FMC Corporation, priority 2016, dated 2022)
